Data reported in patent US12492373B2, “Production method for nerve tissue” (Racthera Co., Ltd., priority 2014, dated 2025).

Key:
Format in all cases: cell-based
[1] = test system: human iPS cells (1231A3 strain); experiment: Bright field observation of feeder-free cultured human iPS cells after preconditioning
Method: As a specific example of preconditioning in step 1 of the production method of the present invention, the following operation was performed. First, the subconfluent human iPS cells (1231A3 strain) were washed with PBS, and dispersed into single cells by using TrypLE Select (manufactured by Life Technologies). Thereafter, the above human iPS cells dispersed into single cells were seeded in a plastic culture dish (manufactured by Iwaki) coated with Laminin 511-E8, […] (ROCK inhibiting substance, 10 μM). When a 6-well plate (manufactured by Iwaki, culture area 9.4 cm^2) was used as the above plastic culture dish, the number of plated cells for the above human iPS cells dispersed into single cells was set to 6×10^3. When a 60 mm dish (manufactured by Iwaki, culture area 21 cm^2) was used as the above plastic culture dish, the number of plated cells for the above human iPS cells dispersed into single cells was set to 13×10^3. One day after seeding, the medium was changed to StemFit medium free of Y27632. Thereafter, once in 1-2 days, the medium was changed to StemFit medium free of Y27632. Thereafter, the cells were cultured until 5 days after seeding, namely, one day before subconfluence (50% of culture area is covered with cells). Even when cultured for 6 days after seeding, similar results are shown. The human iPS cells one day before subconfluence in the above feeder-free culturing were subjected to feeder-free culturing in the presence of SB431542 (TGFβR inhibitor (TGFβRi), 5 μM) (step 1: preconditioning treatment, FIG. 1 “Precondition TGFβRi 24 hr”), or in the absence thereof (step 1: without precondition treatment, FIG. 1 “Control”) for 1 day. The bright field observation of cultured cells was performed under an inverted microscope (KEYENCE). […] As a preconditioning operation, subconfluent human iPS cells (1231A3 strain) were first washed with PBS, and dispersed into single cells by using TrypLE Select (manufactured by Life Technologies). […]

[2] = test system: human iPS cells (1231A3 strain); experiment: Immunostaining of aggregate sections for neural tissue markers Nestin, TuJ1, PSA-NCAM
Description: Furthermore, cell aggregates on day 23 after the start of suspension culturing, which were produced from the above iPS cells that underwent a preconditioning treatment as a starting material (conditions of FIG. 5B) were fixed with 4% para-formaldehyde to prepare frozen sections. […] Furthermore, it could be confirmed from the analysis of serial sections, that the regions that could be determined to be neural tissue by morphology observation in the bright field under an inverted microscope were Nestin-positive, TuJ1-positive, and PSA-NCAM-positive (FIG. 5C-E).
Furthermore, the above cell aggregates on day 23 after the start of suspension culturing, which were produced from the above iPS cells that underwent a preconditioning treatment with TGFβR inhibitor (SB431542) or BMPR inhibitor (LDN193189) as a starting material were fixed with 4% para-formaldehyde to prepare frozen sections. […] Furthermore, it could be confirmed from the analysis of serial sections, that the regions that could be identified to be neural tissue by morphology observation in the bright field images were Nestin-positive, TuJ1-positive, and PSA-NCAM-positive (FIG. 8A-F).
Cell aggregates were prepared according to the method described in Example 10 by using, as a starting material, human iPS cells using Essential 8 medium as a feeder-free culturing, TGFβR inhibiting substance (SB431542) in step 1, and a Shh signal transduction pathway activating substance in step 2. The cell aggregates on day 18 after the start of suspension culturing were fixed with 4% para-formaldehyde to prepare frozen section. […] Furthermore, it could be confirmed from the analysis of serial sections, that the regions that could be identified to be neural tissue by morphology observation in the bright field images were Nestin-positive, TuJ1-positive, and PSA-NCAM-positive (FIG. 11).

[3] = test system: human iPS cells (Ff-I01 strain); experiment: Immunostaining of aggregate sections for retinal tissue marker Chx10; conditions: StemFit AK03N, day 19
Description: (§1) Cell aggregates on day 16 after the start of suspension culturing were fixed with 4% para-formaldehyde to prepare frozen sections. These frozen sections were immunostained for Chx10 (anti-Chx10 antibody, Exalpha, sheep), which is one of the retinal tissue markers. These immunostained sections were observed under a fluorescence microscope.
Cell aggregates on day 16 after the start of suspension culturing were fixed with 4% para-formaldehyde to prepare frozen sections. These frozen sections were immunostained for Chx10 (anti-Chx10 antibody, Exalpha, sheep), which is one of the retinal tissue markers, and observed under a fluorescence microscope. […] In addition, the proportion of Chx10-positive cells in the total cells is about 80% under conditions with the addition of BMP4 twice to maintain the final concentration of 5 nM (FIG. 23, D)
The cell aggregates on day 19 after the start of suspension culturing were fixed with 4% para-formaldehyde to prepare frozen sections. These frozen sections were immunostained for Chx10 (anti-Chx10 antibody, Exalpha, sheep), which is one of the retinal tissue markers. These immunostained sections were observed under an inverted fluorescence microscope. As a result, the proportion of Chx10-positive cells in the total cells is about 70% under conditions with the addition of BMP4 twice to maintain the final concentration of 1.5 nM ([…]). In addition, the proportion of Chx10-positive cells in the total cells is about 90% under conditions with the addition of BMP4 twice to maintain the final concentration of 5 nM (FIG. 34, D).
as §1, with “The thus-prepared cell” for “Cell”, “19” for “16”, “markers, and” for “markers. These immunostained sections were”

[4] = 1 day in Essential 8 medium, SB431542 5 μM, LDN193189 100 nM, or both
[5] = Essential 8 medium, SB431542 in step 1, SAG in step 2, day 18
[6] = SB431542 5 μM or LDN193189 100 nM in step 1, SAG 300 nM in step 2, StemFit, day 23
[7] = LDN193189 100 nM in step 1, no SAG in step 2, StemFit, day 23

Row | Structure (SMILES) | morphology of human iPS cell [1, 4] | morphology of human iPS cell ([1]; SB431542 5 μM for 1 day during feeder-free culturing in StemFit medium) | proportion of Nestin-positive cells in the total cells [2, 5] | proportion of PSA-NCAM-positive cells [2, 5] | proportion of TuJ1-positive cells in the total cells [2, 5] | proportion of Nestin-positive cells in the total cells [2, 6] | proportion of PSA-NCAM-positive cells [2, 6] | proportion of TuJ1-positive cells in the total cells [2, 6] | proportion of Chx10-positive cells in the total cells ([3]; SAG 300 nM for 48, 72 or 96 hr in step 1, SAG 500 nM in step 2, BMP4 1.5 nM) | proportion of Chx10-positive cells in the total cells ([3]; SAG 300 nM for 24 hr in step 1, SAG 500 nM in step 2, BMP4 1.5 nM) | proportion of Nestin-positive cells in the total cells [2, 7] | proportion of PSA-NCAM-positive cells in the total cells [2, 7] | proportion of TuJ1-positive cells in the total cells [2, 7]
1 | NC(=O)c1ccc(-c2nc(-c3ccc4c(c3)OCO4)c(-c3ccccn3)[nH]2)cc1 [SB431542, 4-(5-benzol[1,3]dioxol-5-yl-4-pyridin-2-yl-1H-imidazol-2-yl)-benzamide] | not largely influenced | not largely influenced | about 30% | about 70% | about 70% | about 20% | about 70% | about 70% | – | – | – | – | –
2 | CNC1CCC(N(Cc2cccc(-c3ccncc3)c2)C(=O)c2sc3ccccc3c2Cl)CC1 (centres unmarked) [SAG] | – | – | – | – | – | – | – | – | about 80% | about 10% | – | – | –
3 | c1ccc2c(-c3cnn4cc(-c5ccc(N6CCNCC6)cc5)cnc34)ccnc2c1 [LDN193189, 4-[6-(4-piperazin-1-ylphenyl)pyrazolo[1,5-a]pyrimidin-3-yl]quinoline] | not largely influenced | – | – | – | – | about 20% | about 70% | about 70% | – | – | about 20% | about 70% | about 70%
